Data as given in article PMC2607018, “Iodine Atoms: A New Molecular Feature for the Design of Potent Transthyretin Fibrillogenesis Inhibitors” (PLoS ONE, 2009).
Like-named read-outs stand apart in the source and are kept apart here.

Columns and labels:
[1] = target: T1, TTRY78F (Homo sapiens, UniProt P02766, Y98F); parameters: method as in PMID 15080795; conditions: 1:2 proportion of TTRY78F/inhibitor; cited from earlier work
[2] = target: TTRwt (Homo sapiens, UniProt P02766); test: Tetramer dissociation in 6M urea monitored by far-UV circular dichroism; type: biochemical; conditions: TTRwt 3.6 µM, inhibitor 7.2 µM, 25 °C
From the text: (§1) The stabilizing effect of iodine atoms on the tetrameric form of both TTRwt and TTRY78F has been further evaluted on urea induced dissociation experiments by comparing the performance of iododiflunisal versus diflunisal. Thus, after allowing maximum stabilization of the tetrameric forms of both TTR wild type and Y78F mutant proteins by formation of TTR/inhibitor complexes of (1:2) stoichiometry, measures of circular dichroism in the far-UV of changes in the secondary structure of TTR were recorded as a function of time in 6M urea solutions. It has been assumed that the rate of tetramer dissociation is irreversibly associated to fast monomer unfolding when employing urea concentrations exceeding those that may enable monomer refolding.
(§2) It is known that the dissociation of the tetrameric form of TTRwt takes an average of 42 h and the resulting monomers quickly unfold 500.000 times faster. Therefore the rate of dissociation can be estimated by lining it to unfolding which is irreversible in 6M urea. Thus, owing that the tetramer dissociation is the rate limiting step for fibrilogenesis and assuming the kinetic stabilizing mechanism of inhibition, good inhibitors should slow tetramer dissociation.
(§3) Although slow tetramer dissociation is not detectable by far-UV CD spectroscopy, this technique is very much suitable at monitoring the much faster unfolding step.The CD spectra of TTR corresponds to a typical β-sheet reach protein with a Cotton effect centered at 210 nm and a shoulder at 217 nm. This band gradually looses intensity as protein denaturation advances, therefore meaningful changes in the β-sheet content of the protein are normally recorded in the region of 210–250 nm. Below this region (190–210 nm) other interesting structural changes are masked by the high concentrations of urea required for denaturation. Results are here presented in unfolded fraction units which are calculated from each spectra assuming than at time zero the elipticity recorded corresponds to the fully folded protein while at 200 h this parameter agrees with a totally unfolded state.
(§4) Both proteins were incubated in buffered solutions of 6M urea in the presence and absence of 1:2 ratios of protein to inhibitor and far-UV CD spectra ([…]) were intermitently recorded for a period of 200 hours. […]
(§5) Protein stock solutions of wtTTR and TTRY78F of 1 mg/ml of protein in 50 mM of sodium phosphate buffer, 1mM EDTA, pH 7.0 were also prepared from mother solutions of both proteins containing 4 mg/mL (72.7 µM) of wtTTR and 3 mg/mL (55.5 µM) of TTRY78F that were determined by spectrophotometrical methods. […] The samples were incubated over a period of 200 hours at 25 °C and far-UV CD spectra (210-250 nm) were periodically recorded in a JASCO 600 instrument. […]

[3] = target: T1, TTRY78F; test: as above; type: biochemical; conditions: TTRY78F 3.6 µM, inhibitor 7.2 µM, 25 °C
From the text: as §1, §2, §3, §4, §5

[4] = tested on: TTRV30M transgenic mice strain; test: Preclinical animal study, 3 months; type: in vivo; conditions: 2.8 mg per day during 3 months
Method: (§6) To gain further insight on the therapeutic potential of these iodinated TTR fibrillogenesis inhibitors, in vitro binding tests of idodiflunisal to thyroid hormone receptors alfa and beta were carried out (data not shown). […] This has been further confirmed by preclinical animal studies using a TTRV30M transgenic mice strain receiving 2.8 mg of iododiflunisal per day during 3 months. […] However, further preclinical tests are needed to validate these compounds as potential drugs for TTR related amyloidosis.

[5] = tested on: natural TTR tetramers occurring in blood plasma of control and FAP patients; parameters: method as in PMID 15080795; conditions: cited from earlier work
[6] = target: T2, thyroid hormone receptor beta (Homo sapiens, UniProt P10828); test: In vitro binding test to thyroid hormone receptors; conditions: data not shown
T2 sequence (P10828 1-461): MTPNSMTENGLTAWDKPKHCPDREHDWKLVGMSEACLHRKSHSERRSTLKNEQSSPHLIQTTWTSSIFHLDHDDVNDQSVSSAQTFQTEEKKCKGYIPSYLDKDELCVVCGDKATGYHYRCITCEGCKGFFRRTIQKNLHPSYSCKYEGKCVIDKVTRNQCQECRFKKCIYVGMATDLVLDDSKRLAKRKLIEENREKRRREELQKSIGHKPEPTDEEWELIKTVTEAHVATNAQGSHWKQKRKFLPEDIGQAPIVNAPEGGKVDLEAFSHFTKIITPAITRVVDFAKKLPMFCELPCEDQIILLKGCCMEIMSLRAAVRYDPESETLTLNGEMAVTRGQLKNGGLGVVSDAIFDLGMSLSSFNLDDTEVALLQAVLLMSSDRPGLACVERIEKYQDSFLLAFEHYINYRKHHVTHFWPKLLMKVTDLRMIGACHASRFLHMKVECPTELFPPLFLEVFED
Method: as §6

[7] = tested on: thyroid hormone receptor alfa; test: In vitro binding test to thyroid hormone receptors; conditions: data not shown
Method: as §6

[8] = target: TTR variant Y78F (Homo sapiens, UniProt P02766, Y98F); test: Kinetic turbidity assay of acid induced fibril formation; type: biochemical
From the text: Two different parameters can be derived from this kinetic test. The IC50 value is the inhibitor concentration at which the initial rate of fibril formation is half than that in the absence of inhibitor. In turn, RA (%) can be defined as the percent reduction of fibril formation rate at high inhibitor concentration relative to the rate at zero concentration of tested compound.
An in vitro turbidimetric test in a high troughput mode was used to assess the fibrillogenesis inhibition potency of the compounds of the library. The mutant protein TTRY78F was incubated with various concentrations of test compounds in 96 well microplates. After lowering the pH of the solutions to 4.2, the incubation was extended for 1.5 h while recording the absorbance at 340 nm at 1 min intervals. […] (Figure S1).
The mutant Y78F TTR protein (0.4 mg.mL^-1) was incubated for 30 min (pH 7.6, 37 °C) with 6 concentrations of test compounds ranging from 0 to 40 µM in 96-well microplates.
IC50% value is the inhibitor concentration at which the initial rate of fibril formation is half of that in the absence of inhibitor. RA(%) is the percentage of reduction in fibril formation rate induced by a given concentration of test compound relative to the rate of experiments at zero concentration of test compound.

[9] = target: T3, recombinant wild type TTR (Homo sapiens, UniProt P02766); test: T4 competition assay (125I-T4, gel filtration); type: binding; conditions: for affinity for TTR relative to T4, in words: from T4 displacement
T3 construct: made in house; host or cells: E. coli
From the text: To evaluate the relative binding affinity of the compounds for TTR an already described procedure was followed.

[10] = inhibitor concentration at which the initial rate of fibril formation is half, Y78F TTR 0.4 mg/mL, pH 4.2, 37 °C, read-out: Kinetic turbidity assay IC50
[11] = fibrillogenesis inhibition assay, effect of iodination, read-out: Inhibitory efficiency, rough screening (Figure 3, measure not given)

## O=C(O)c1cc(-c2ccc(F)cc2F)ccc1O [1a, 2’,4’-difluoro-4-hydroxy-[1,1’]-biphenyl-3-carboxylic acid, reference compound]
[1]
  aggregates seen by TEM: still allow amyloid precipitates to occur
[2]
  protein denaturation (unfolding) after 200 h: 60%
[3]
  protein denaturation (tetramer dissociation) after 200 h: 80%

## O=C(O)c1cc(-c2ccc(F)cc2F)cc(I)c1O [1b, 2’,4’-difluoro-4-hydroxy-5-iodo-[1,1’]-biphenyl-3-carboxylic acid]
[4]
  metabolic disfunctions: did not show significant metabolic disfunctions
[5]
  stabilizing effect on TTR tetramers: more potent stabilizing effect
[1]
  aggregates seen by TEM: completely prevented
[2]
  protein denaturation (unfolding) after 200 h: 30%
[3]
  protein denaturation (tetramer dissociation) after 200 h: 30%
[6]
  binding constants: almost negligible
[7]
  binding constants: almost negligible

## CCOC(=O)[C@H](C)NC(=O)c1cc(-c2ccc(F)cc2F)cc(I)c1O [11b, N-[2’,4’-difluoro-4-hydroxy-5-iodo-[1,1’]-biphenyl-3-carbonyl]-L-alanine ethyl ester]
[8]; [10]
  IC50: 5.7 µM
[9]
  affinity for TTR relative to T4, in words: higher affinity values for TTR than T4

## COC(=O)C(CC(=O)OC(C)(C)C)NC(=O)c1cc(-c2ccc(F)cc2F)cc(I)c1O [19b, N-[2’,4’-difluoro-4-hydroxy-5-iodo-[1,1’]-biphenyl-3-carbonyl]-L-aspartic α-methyl ester and β-tert-butyl ester]
[8]; [10]
  IC50: 5.8 µM
[9]
  affinity for TTR relative to T4, in words: higher affinity values for TTR than T4

## CC(C)(C)OC(=O)[C@H](CC(N)=O)NC(=O)c1cc(-c2ccc(F)cc2F)ccc1O [21a, N-[2’,4’-difluoro-4-hydroxy-[1,1’]-biphenyl-3-carbonyl]-L-asparagine tert-butyl ester]
[8]; [10]
  IC50: > 50 µM

## CC(C)(C)OC(=O)[C@H](CC(N)=O)NC(=O)c1cc(-c2ccc(F)cc2F)cc(I)c1O [21b, N-[2’,4’-difluoro-4-hydroxy-5-iodo-[1,1’]-biphenyl-3-carbonyl]-L-asparagine tert-butyl ester]
[8]; [10]
  IC50: 9.7 µM

## O=C(O)CCNC(=O)c1cc(-c2ccc(F)cc2F)ccc1O [22a]
[8]; [10]
  IC50: > 50 µM

## O=C(O)CCNC(=O)c1cc(-c2ccc(F)cc2F)cc(I)c1O [22b, N-[2’-,4’-difluoro-4-hydroxy-5-iodo-[1,1’]-biphenyl-3-carbonyl]-β-alanine]
[8]
  fibrillogenesis inhibitory potency, in words: very potent inhibitor
[9]
  affinity for TTR relative to T4, in words: equal affinity for TTR than T4
[9]; wild type TTR 30 nM, 125I-T4, test compounds 0-10 µM, relative to cold T4
  T4 Displacement EC50(T4)/EC50(I): 0.95

## COC(=O)CCNC(=O)c1cc(-c2ccc(F)cc2F)ccc1O [23a, N-[2’,4’-difluoro-4-hydroxy-[1,1’]-biphenyl-3-carbonyl]-β-alanine methyl ester]
[8]; [10]
  IC50: > 50 µM

## O=C(O)c1ccc(-c2ccccc2)cc1 [Biphenyl carboxylic, reference compound]
[8]; [11]
  IC50: 49 µM

## O=C(O)c1ccccc1Nc1cccc(C(F)(F)F)c1 [Flufenamic, reference compound]
[8]; [11]
  IC50: 10.9 µM

## CC(C(=O)O)c1ccc(-c2ccccc2)c(F)c1 (stereo not shown) [Flurbiprofen, reference compound]
[8]; [11]
  IC50: > 100 µM

## O=C(O)c1ccc(Oc2ccccc2)cc1 [Phenoxybenzoic, reference compound]
[8]; [11]
  IC50: 29 µM

## NC(Cc1ccc(Oc2ccc(O)cc2)cc1)C(=O)O (stereo not shown) [T0, thyronine, reference compound]
[8]; [10]
  IC50: > 50 µM

## Oc1c(I)cc(I)cc1I [TIP, triiodophenol, reference compound]
[8]; [10]
  IC50: 3.2 µM

## O=C(O)c1ccccc1O [reference compound]
[8]; [11]
  IC50: > 100 µM
